Consider one compound from US20160303137A1, “DUAL PI3K AND WNT PATHWAY INHIBITION AS A TREATMENT FOR CANCER” (Indiana University Research and Technology Corporation, priority 2015, published 2016).

The test system of test [1] is Wnt pathway genes incl. Porcupine (PORCN). The test can be described thus: RNA-seq of MDA-MB-231 before and after Buparlisib treatment. The format is cell-based, human. Conditions: MDA-MB-231, RNA-seq after vs before treatment. How it is done:
RNA-sequencing for the Buparlisib treated MDA-MB-231 cell line experiment was performed as follows. To enrich for the non-ribosomal RNA transcriptome, RNA samples were first depleted of ribosomal RNA using the Low Input Ribominus Kit (Life Technologies). ERCC spike-in controls (Pool 1) were introduced for all samples (Life Technologies). RNA libraries were constructed using the Ion Total RNA-Seq Kit for AB Library Builder System (Life Technologies) per manufacturer's instructions. Libraries were barcoded using the IonXpress RNA-Seq Barcode 1-16 Kit (Life Technologies), and libraries were quantified using the Agilent TapeStation 2200 along with the DNA D1K Kit. Libraries were diluted to a concentration of 11 picomolar prior to templating and emulsion PCR using the Ion Template OT2 200 v2 kit along with Ion OneTouch 2 instrument (Life Technologies). Templates were quantified using the IonSphere Quality Control Kit (Life Technologies). Samples were sequenced on an Ion Proton Next-Generation Sequencer using the Ion Proton PI chip and the Ion PI Sequencing 200 v2 kit (Life Technologies). Samples were sequenced using 2 RNA-seq libraries/samples per chip to an average of 30-40 million reads per sample. Reads were mapped to the human genome (hg19) using the STAR algorithm (Dobin et al. Bioinformatics 29, 15-21 (2013)). Aligned BAM files were then imported into Partek Genomics Suite. […]

Test [2] relates to TMD-231 lung metastases. Put plainly: Lung metastases quantification (Ki67), TMD-231 model. Conditions: Ki67 positive pixels in lung sections; Buparlisib 30 mg/kg, WNT974 3 mg/kg. Type of test: in vivo, NSG mice. The method, then: For the pharmacodynamic studies, NSG mice were implanted with TMD-231 TNBC cells into the mammary fat pad of 24 NSG mice (6 mice per group: Vehicle, Buparlisib, WNT974, Buparlisib+WNT974). The TMD-231 cell line is a variant of the MDA-MB-231 cell line that metastasizes to the lung. Tumors were allowed to grow for 29 days to an average size of approximately 350 mm^3 prior to dosing. To validate compound-mediated modulation of the PI3K/mTOR and Wnt signaling pathways, mice were dosed once-a-day with vehicle, Buparlisib (30 mg/kg), WNT974 (3 mg/kg), or the combination for 7 days, with intermittent tumor measurements. […] To quantify lung metastases, lungs were extracted, fixed in 10% formalin, and processed in paraffin. Five-micrometer sections were H&E stained, deparaffinized, blocked, and stained using primary anti-human Ki67 antibody (DAKO, Carpinteria, Calif.). The Aperio whole slide digital imaging system was used for imaging (Leica, Wetzlar, Germany). Using the Aperio ScanScope CS, 20× images were taken at scan times ranging from 1.5 to 2.25 minutes. The total nuclear labeling index (Ki67) was generated using the Aperio ImageScope standard positive pixel algorithm. The Image Analysis software was used to calculate the percent of positive pixels (brown staining) in one large cross section from each lung.

SMILES strings stand for the structures.

Regarding `Nc1cc(C(F)(F)F)c(-c2cc(N3CCOCC3)nc(N3CCOCC3)n2)cn1` [Buparlisib, 5-(2,6-di-4-morpholinyl-4-pyrimidinyl)-4-(trifluoromethyl)-2-pyridinamine], the “expression of Wnt pathway genes” value in test [1] is listed as “significant increase”. Besides, in test [1] (preliminary data), the “Porcupine (PORCN) gene over-expression after treatment” value was “approximately 8 fold”. The “lung metastases compared with the control group” value in test [2] is “small but non-significant decreases”.
